The values that follow come from ChEMBL document CHEMBL5390215, “SARS-CoV-2 papain-like protease (PLpro) inhibitory and antiviral activity of small molecule derivatives for drug leads” (Bioorg Med Chem Lett, 2023).

Each structure is given as a SMILES string.

In one assay the test system is SARS-CoV. Kind of assay: Antiviral activity against SARS-CoV-1 infected Chlorocebus sabaeus Vero E6 cells assessed as inhibition of viral replication. The format is functional. The settings on record: Severe acute respiratory syndrome-related coronavirus, Vero C1008; read-out: ID50 (the source's name).
The target of assay [1] is Replicase polyprotein 1ab (Severe acute respiratory syndrome-related coronavirus, UniProt P0C6X7). Kind of assay: Inhibition of SARS-CoV-1 papain-like protease.
Assay [2] addresses Replicase polyprotein 1ab (Severe acute respiratory syndrome coronavirus 2, UniProt P0DTD1). Nature of the assay: Inhibition of SARS-CoV-2 papain-like protease.
In a further assay the test system is SARS-CoV-2. Kind of assay: Antiviral activity against SARS-CoV-2 infected Chlorocebus sabaeus Vero E6 cells assessed as inhibition of viral replication. The settings on record: Severe acute respiratory syndrome coronavirus 2, Vero C1008; read-out: ID50 (the source's name). The format is functional.

In the case of `COc1ccc(CNC(=O)C2CCN([C@H](C)c3cccc4ccccc34)CC2)cc1`, the IC50 came to 10.2 µM in the assay on SARS-CoV, 0.56 µM in assay [1], 0.92 µM in assay [2] and 17 µM with SARS-CoV-2.

As to `COc1cccc(CNC(=O)C2CCN([C@H](C)c3ccc4ccccc4c3)CC2)c1`, the IC50 is 13.2 µM in assay [1] and 27 µM in the assay on SARS-CoV-2.

As for `CCCN(CCC)C(=O)c1ccc(C)c(C(=O)N[C@H](C)c2cccc3ccccc23)c1`, the IC50 (in assay [2]; in the assay with SARS-CoV-2) was > 100 µM throughout.

`C[C@@H](NS(=O)(=O)c1ccc([N+](=O)[O-])cc1)c1cccc2ccccc12`: the IC50 was 6.3 µM in assay [2] and 56 µM in the assay with SARS-CoV-2.

With `C[C@@H](NC(=O)[C@@H](Cc1c[nH]c2ccccc12)NC(=O)OC(C)(C)C)c1cccc2ccccc12`, the IC50 is > 100 µM in assay [2] and 36 µM with SARS-CoV-2.

With `C[C@@H](NC(=O)[C@H](N)Cc1ccccc1)c1cccc2ccccc12`, the results for the IC50 (in assay [2]; in the assay on SARS-CoV-2) were > 100 µM and 76 µM, respectively.

For the molecule `COc1ccc(C(=O)N[C@H](C)c2cccc3ccccc23)cc1N`, the IC50 in assay [2] is 35.2 µM; with SARS-CoV-2 it was > 100 µM.

Consider `C[C@@H](NC(=O)[C@H](NC(=O)OC(C)(C)C)c1ccccc1)c1cccc2ccccc12`, for which the results for the IC50 (in assay [2]; in the assay on SARS-CoV-2) were 13.3 µM and > 100 µM, respectively.

Turning to `C[C@@H](NS(=O)(=O)c1cccc([N+](=O)[O-])c1)c1cccc2ccccc12`, the IC50 was 15.5 µM in assay [2] and 38 µM in the assay with SARS-CoV-2.

As to `C[C@@H](NC(=O)[C@@H](NC(=O)OC(C)(C)C)c1ccccc1)c1cccc2ccccc12`, the values for the IC50 (in assay [2]; in the assay on SARS-CoV-2) were 13.2 µM and > 100 µM, respectively.

For `C[C@@H](NC(=O)[C@@H](Cc1ccccc1)NC(=O)OC(C)(C)C)c1cccc2ccccc12`, the IC50 is > 100 µM in assay [2] and 38 µM with SARS-CoV-2.

Regarding `C[C@@H](NS(=O)(=O)c1ccc(N)cc1)c1cccc2ccccc12`, the IC50 (in assay [2]; in the assay on SARS-CoV-2) was > 100 µM in each case.

`Cc1ccc(C(=O)NC(C)C)cc1C(=O)N[C@H](C)c1cccc2ccccc12`: the IC50 (in assay [2]; in the assay with SARS-CoV-2) was > 100 µM each time.

For `CCCN(CCC)C(=O)c1cccc(C(=O)N[C@H](C)c2cccc3ccccc23)c1`, the IC50 in assay [2] stood at 15.9 µM; in the assay with SARS-CoV-2 it was 15 µM.

In the case of `C[C@@H](NS(=O)(=O)c1cccc(N)c1)c1cccc2ccccc12`, the IC50 in the assay on SARS-CoV-2 is 64 µM.

As for `C[C@@H](NC(=O)[C@H](N)Cc1c[nH]c2ccccc12)c1cccc2ccccc12`, the IC50 in assay [2] was > 100 µM; with SARS-CoV-2, 31 µM.

Consider `COc1ccc([C@@H](C)NC(=O)c2cc(N)ccc2C)c2ccccc12`, for which the IC50 was > 100 µM in assay [2] and 36 µM with SARS-CoV-2.

As for `Cc1ccc(N)cc1C(=O)N[C@H](C)c1cccc2ccccc12`, in the assay with SARS-CoV-2, the IC50 was 38 µM.

As to `CNCc1ccc(C)c(C(=O)N[C@H](C)c2cccc3ccccc23)c1`, the IC50 with SARS-CoV-2 was 20 µM.

Regarding `Cc1ccc(CN)cc1C(=O)N[C@H](C)c1cccc2ccccc12`, the IC50 in the assay on SARS-CoV-2 turned out to be 24 µM.
